# According to patent US11767319B2, “Crystalline forms of a selective c-kit kinase inhibitor” (Third Harmonic Bio, Inc., priority 2020, dated 2023):
# “Also recorded” adds a separate entry of the source.
# How the values were obtained:
# Assay type in all cases: physicochemical
# [1] = Slurry experiments in SGF; details: 37° C., 500 rpm
# Description: About 200 mg of sodium chloride and about 100 mg Triton X-100 was weighted into a 100-mL volumetric flask. About 100 mL of purified water was added to the flask and the solution was sonicated until all solids were completely dissolved. 1 M HCl was added to adjust the pH to 1.8 and the solution was mixed well and the pH was checked with a pH meter.
# Competitive slurry experiments were performed for Forms A, H^A, H^B, C and D in SGF. About 10 mg of each form was added into separate HPLC vials followed by addition of 1.0 mL SGF in order to form slurries. The slurries were heated to 37° C. and stirred at 500 rpm. After 2 h or 24 h, the samples were centrifuged and the solids were collected for XRPD testing.
# [2] = Competitive slurry experiments among anhydrates (IPA/IPAc); details: at RT and 50° C., IPA/IPAc slurries
# Description: Competitive slurry experiments were performed in IPA/IPAc at RT/50° C. between anhydrates Form A of compound 1 and Form D of compound 1. Form A of compound 1 was added into each solvent to form a slurry at RT or 50° C. and was stirred for 2 h. The slurries were then filtered to obtain saturated solution. Around 10 mg each of Form A of compound 1 and Form D of compound 1 were added into each solution to form a mixed slurry at RT or 50° C. […] The formation of Form H^A of compound 1 is postulated to be caused by residual water in the solvents or due to ambient humidity (˜35% humidity during slurry experiments).
# [3] = Form investigation in buffered media; details: for XRPD Pattern / pH (24 h): 24 h at 25° C.
# Description: To investigate the polymorphic landscape of compound 1 in buffered systems, 5×20 mg of Form A slurries and 5×20 mg of amorphous slurries (amorphous material prepared using the method described in the above hydration mapping experiments) were prepared by adding 1 mL of buffer to each vial and the resulting slurries were agitated for 24 h at 25° C. The pH was measured post-buffer addition and after 24 h agitation. After 24 h, aliquots of solid were isolated via centrifugal filtration and analysed by XRPD.
# [4] = Hydration mapping starting with Form A
# Description: To establish the hydration map of compound 1, solutions with varying water activity (aw) were prepared and the aw was measured using a water activity meter. Table 13 below details the solvent systems investigated and their corresponding measured water activities.
# 23×20 mg of Form A of compound 1 was weighed into vials. 1 mL of solvent (see tables above) was added to each vial to form a slurry. After manual shaking for a few seconds, where solutions were observed, an additional ˜10 to 20 mg of solid was added to produce a slurry. Additional solid was added to the 2-MeTHF, water/2-MeTHF (1:99% v/v), acetone/water (aw of 0.92) and methanol/water (aw of 0.11) samples. All slurries were then agitated for 24 h at 25° C. After 24 h, aliquots of solid were isolated via centrifugal filtration and analysed by XRPD. The remaining slurries were agitated for a further 5 days (total of 6 days). The solids were isolated and analysed by XRPD. All identified forms were analysed by XRPD, TG/DSC and ^1H NMR (where sufficient material was available).
# [5] = Ethanol/hydrocarbon mixtures slurry study
# Description: Using the methods described above for the Form A input and amorphous input experiments, 5×20 mg of Form A slurries and 5×20 mg of amorphous input slurries were prepared by adding 1 mL of solvent (see Table 16 below) to each vial and the resulting slurries were agitated for 24 h at 25° C. After 24 h, aliquots of solid were isolated via centrifugal filtration and analysed by XRPD.
# [6] = Acetone/Water, aw 0.1363, 25° C.
# [7] = Acetone/Water, aw 0.2621, 25° C.
# [8] = Acetone/Water, aw 0.5455, 25° C.
# [9] = EtOH/Heptane, aw 0.0300, 25° C.
# [10] = Water/2-MeTHF, aw 0.5286, 25° C.
smiles,measurement,setting,value
"Cc1ccc(-c2noc([C@H]3C[C@@H]3F)n2)cc1NC(=O)c1cnc2ccccn12 [Form H^A, N-(5-(5-((1R,2S)-2-fluorocyclopropyl)-1,2,4-oxadiazol-3-yl)-2-methylphenyl)imidazo[1,2-a]pyridine-3-carboxamide]",XRPD at 2 h,[1],No form change; also recorded: Form H^A
same,XRPD at 2 h,[1]; listed as Form H^B,No form change; also recorded: Form H^B
same,XRPD at 24 h,[1],No form change; also recorded: Form H^A
same,XRPD at 24 h,[1]; listed as Form H^B,No form change; also recorded: Form H^B
same,relative thermodynamic stability,[2],thermodynamically more stable than Form A
"Cc1ccc(-c2noc([C@H]3C[C@@H]3F)n2)cc1NC(=O)c1cnc2ccccn12 [Form A, N-(5-(5-((1R,2S)-2-fluorocyclopropyl)-1,2,4-oxadiazol-3-yl)-2-methylphenyl)imidazo[1,2-a]pyridine-3-carboxamide]",XRPD Pattern,[3]; NaOH (0.2M),Form H^A and Form C
same,XRPD Pattern,[3]; pH 1.2 (HCl—KCl),HCl Salt Form
same,XRPD Pattern,[3]; pH 4.5 (acetate),Form F
same,XRPD Pattern,[3]; pH 6.8 (phosphate),Form H^A
same,XRPD Pattern,[3]; pH 8 (PBS),Form H^A
same,pH (Post-Buffer Addition),[3]; slurry in NaOH (0.2M),11.98
same,pH (24 h),[3]; slurry in NaOH (0.2M),11.91
same,pH (Post-Buffer Addition),[3]; slurry in pH 1.2 (HCl—KCl),1.20
same,pH (24 h),[3]; slurry in pH 1.2 (HCl—KCl),1.19
same,pH (Post-Buffer Addition),[3]; slurry in pH 4.5 (acetate),4.63
same,pH (24 h),[3]; slurry in pH 4.5 (acetate),4.62
same,pH (Post-Buffer Addition),[3]; slurry in pH 6.8 (phosphate),6.87
same,pH (24 h),[3]; slurry in pH 6.8 (phosphate),6.88
same,pH (Post-Buffer Addition),[3]; slurry in pH 8 (PBS),8.04
same,pH (24 h),[3]; slurry in pH 8 (PBS),8.17
same,XRPD at 2 h,[1],transformed to Form C
same,XRPD at 24 h,[1],transformed to Form C
same,"XRPD pattern observed, 24 h","[4]; 2-MeTHF, aw 0.0378, 25° C.",Form A
same,"XRPD pattern observed, 6 Days","[4]; 2-MeTHF, aw 0.0378, 25° C.",Form A
same,"XRPD pattern observed, 24 h",[4]; [6],Form H^A
same,"XRPD pattern observed, 6 Days",[4]; [6],Form H^A
same,"XRPD pattern observed, 24 h",[4]; [7],Form H^A
same,"XRPD pattern observed, 6 Days",[4]; [7],Form H^A
same,"XRPD pattern observed, 24 h",[4]; [8],Form H^A
same,"XRPD pattern observed, 6 Days",[4]; [8],Form H^A
same,"XRPD pattern observed, 6 Days","[4]; Acetone/Water, aw 0.7082, 25° C.",Form H^A
same,"XRPD pattern observed, 24 h",[4]; [9],Form A
same,"XRPD pattern observed, 6 Days",[4]; [9],Form A
same,"XRPD pattern observed, 24 h","[4]; EtOH/Water, aw 0.1580, 25° C.",Form H^A
same,"XRPD pattern observed, 6 Days","[4]; EtOH/Water, aw 0.1580, 25° C.",Form H^A
same,"XRPD pattern observed, 24 h","[4]; EtOH/Water, aw 0.3377, 25° C.",Form H^A
same,"XRPD pattern observed, 6 Days","[4]; EtOH/Water, aw 0.3377, 25° C.",Form H^A
same,"XRPD pattern observed, 24 h","[4]; EtOH/Water, aw 0.4986, 25° C.",Form H^A
same,"XRPD pattern observed, 6 Days","[4]; EtOH/Water, aw 0.4986, 25° C.",Form H^A
same,"XRPD pattern observed, 24 h","[4]; EtOH/Water, aw 0.7600, 25° C.",Form H^A
same,"XRPD pattern observed, 6 Days","[4]; EtOH/Water, aw 0.7600, 25° C.",Form H^A
same,"XRPD pattern observed, 24 h","[4]; EtOH/Water, aw 0.9005, 25° C.",Form A
same,"XRPD pattern observed, 24 h","[4]; MeCN/Water, aw 0.1060, 25° C.",Form H^A
same,"XRPD pattern observed, 6 Days","[4]; MeCN/Water, aw 0.1060, 25° C.",Form H^A
same,"XRPD pattern observed, 24 h","[4]; MeCN/Water, aw 0.3664, 25° C.",Form H^A
same,"XRPD pattern observed, 6 Days","[4]; MeCN/Water, aw 0.3664, 25° C.",Form H^A
same,"XRPD pattern observed, 24 h","[4]; MeCN/Water, aw 0.5573, 25° C.",Form H^A
same,"XRPD pattern observed, 6 Days","[4]; MeCN/Water, aw 0.5573, 25° C.",Form H^A
same,"XRPD pattern observed, 6 Days","[4]; MeCN/Water, aw 0.7300, 25° C.",Form H^A
same,"XRPD pattern observed, 24 h","[4]; MeOH/Water, aw 0.0963, 25° C.",Form H^A
same,"XRPD pattern observed, 6 Days","[4]; MeOH/Water, aw 0.0963, 25° C.",Form H^A
same,"XRPD pattern observed, 24 h","[4]; MeOH/Water, aw 0.3242, 25° C.",Form H^A
same,"XRPD pattern observed, 6 Days","[4]; MeOH/Water, aw 0.3242, 25° C.",Form H^A
same,"XRPD pattern observed, 24 h","[4]; MeOH/Water, aw 0.5145, 25° C.",Form H
same,"XRPD pattern observed, 6 Days","[4]; MeOH/Water, aw 0.5145, 25° C.",Form H^A
same,"XRPD pattern observed, 24 h","[4]; MeOH/Water, aw 0.6965, 25° C.",Form H
same,"XRPD pattern observed, 6 Days","[4]; MeOH/Water, aw 0.6965, 25° C.",Form H
same,"XRPD pattern observed, 24 h","[4]; MeOH/Water, aw 0.9294, 25° C.",Form A
same,"XRPD pattern observed, 6 Days","[4]; MeOH/Water, aw 0.9294, 25° C.",Form C
same,"XRPD pattern observed, 24 h",[4]; [10],Form H^A
same,"XRPD pattern observed, 6 Days",[4]; [10],Form H^A
same,XRPD pattern observed,"[5]; EtOH/Cyclohexane (50:50% v/v), aw 0.025, 24 h at 25° C.",Form A
same,XRPD pattern observed,"[5]; EtOH/Dodecane (50:50% v/v), aw 0.024, 24 h at 25° C.",Form A
same,XRPD pattern observed,"[5]; EtOH/Hexane (50:50% v/v), aw 0.018, 24 h at 25° C.",Form A
same,XRPD pattern observed,"[5]; EtOH/Methylcyclohexane (50:50% v/v), aw 0.019, 24 h at 25° C.",Form A
same,XRPD pattern observed,"[5]; EtOH/Octane (50:50% v/v), aw 0.019, 24 h at 25° C.",Form A
